Assays:
Assay type in all cases: cell-based, human
melanoma cells = assay: Cell clonogenicity (colony formation); conditions: long-term pretreatment, Gamitrinib 0.25 and 0.5 μM in combination with PLX4720
Experimental: (§1) Cell viability was measured by the MTT assay or CellTiter-Glo luminescent cell viability assay (Promega). For the assessment of cell clonogenicity, cells were seeded into 12-well tissue culture plates at a density of 500 cells/well as biological triplicates in drug-free medium. Medium was refreshed every 3 or 4 days for 14 days. Colonies were then stained overnight with methanol containing 0.05% crystal violet. After extensive washing with distilled H2O, cells were air-dried and subjected to image acquisition using a Nikon D200 DLSR camera.

WM9 cells = assay: Cell viability by CellTiter Glo in WM9 cells; conditions: WM9, 72 h, Gamitrinib titrated with PLX4720 10 μM or PLX4720 10 μM and PD0325901 1 μM
Experimental: as §1

autophagic flux = assay: Autophagic flux in WM9 cells expressing mCherry-eGFP-LC3B; conditions: WM9, 72 h, Gamitrinib 1 μM or Spautin-1 10 μM combined with PLX4720 10 μM/PD0325901 1 μM
Experimental: WM9 cells stably expressing pLVO-Puro-mCherry-eGFP-LC3 were analyzed with a BD LSR II flow cytometer. Fluorescence of mCherry and eGFP was recorded to derive the ratio of mCherryheight over eGFP-height. This ratio indicates the autophagic flux.
Briefly, autophagic flux was assessed by FACS analysis of WM9 cells expressing the mCherry-eGFPLC3B construct that were transfected with the indicated siRNAs targeting autophagy and ER stress response and treated for 72 h with DMSO or the combination of PLX4720 at 10 μM and PD0325901 at 1 μM. The data represent the average of 2 biological replicates. Induction of apoptosis and cell death was assessed by PSVue 643 staining in WM9 cells expressing the mCherry-eGFP-LC3B construct transfected with the indicated siRNAs targeting autophagy and ER stress response and treated for 72 h with DMSO or the combination of PLX4720 at 10 μM and PD0325901 at 1 μM. Autophagic flux was assessed by FACS analysis of WM9 cells expressing the mCherry-eGFPLC3B construct treated for 72 h with Gamitrinib at 1 μM or Spautin-1 at 10 μM in combination with PLX4720 at 10 μM/PD0325901 at 1 μM. Cells treated with DMSO were used as the control for setting up the gate. Induction of apoptosis and cell death was assessed by PSVue 643 staining in WM9 cells treated for 72 h with Gamitrinib at 1 μM or Spautin-1 at 10 μM in combination with PLX4720 at 10 μM/PD0325901 at 1 μM. […]

ATP production = ATP production in WM9 cells; conditions: WM9, 72 h, Gamitrinib combined with PLX4720 10 μM
Experimental: Cells were seeded into Black Plate, Clear Bottom 96 Well Assay Plates (Corning Inc., cat. #3603) at a density of 5,000 cells/well. Immediately following the drug treatment, culture media were removed. Cells in each well were incubated with a mixture of reagents containing 50 μl DPBS, 50 μl reconstituted CellTiter-Glo® Assay and 0.5 μl CyQUANT for 10 min in the dark. Both ATP luminescence and CyQUANT fluorescence were recorded with a BioTek Multi-Mode Microplate Reader. The ATP production per cell was calculated as the ratio of ATP luminescence over CyQUANT fluorescence.

Gamitrinib
colony formation (melanoma cells): substantially inhibited colony formation
cell viability (WM9 cells): significantly impaired cell viability
autophagic flux (autophagic flux): decreased the autophagic flux
ATP production (ATP production): significantly decreased the ATP production
